{"source": "patent US20230085607A1", "about": "“IVERMECTIN COMPOSITIONS FOR TREATMENT OF COVID-19” (priority 2021, published 2023)", "origin": "cited, not measured here", "key": {"[1]": {"tested_on": "mice challenged with endotoxin (LPS O111:B4) or live Escherichia coli", "conditions": "for concentration of IL-1 α: controls 1187.0±278.64"}, "[2]": {"tested_on": "lipopolysaccharide-activated macrophages"}, "[3]": {"tested_on": "rats with polymicrobial sepsis (CL2P)", "conditions": "10 mg/kg intraperitoneally at 1 and 6 h after CL2P and every 12 h"}, "[4]": {"tested_on": "mice with experimental colitis"}, "[5]": {"tested_on": "mice with lethal endotoxemia or lethal sepsis"}, "[6]": {"tested_on": "rats subjected to myocardial ischemia and reperfusion", "conditions": "10 mg/kg intravenously then 10 mg/kg/h infusion"}, "[7]": {"tested_on": "mice with polymicrobial sepsis (CL2P)", "conditions": "10 mg/kg intraperitoneally, monitored 72 h after CL2P"}, "[8]": {"tested_on": "mice with LPS-induced ARDS"}, "[9]": {"tested_on": "LPS-challenged macrophages", "conditions": "0 to 50 μM, 6 h pre-incubation, LPS 24 h"}, "[10]": {"tested_on": "LPS-stimulated primary peritoneal macrophages"}, "[11]": {"tested_on": "mice with LPS-induced ARDS", "remark": "listed apart in the source"}, "[12]": {"conditions": "50 and 100 mg/kg/day, compared with MD group"}, "[13]": {"conditions": "50 mg/kg, LPS 5 mg/kg 3 days later"}}, "note": "Where two headings read alike, the source gives them in different places.", "data": [{"compound": "CC1=CC(=O)C(C(C)C)=CC1=O", "note": "[thymoquinone]", "values": [{"measurement": "concentration of IL-1 α", "setting": "[1]; 0.75 mg/kg dose", "result": "310.8 ± 70.93", "unit": "pg/mL"}, {"measurement": "IL-10 levels", "setting": "[1]; 0.75 mg/kg, controls 5505.2±333.96", "result": "2885.0 ± 553.98", "unit": "pg/mL"}, {"measurement": "concentration of IL-1 α", "setting": "[1]; 1 mg/kg group", "result": "428.3 ± 71.32", "unit": "pg/mL"}, {"measurement": "levels of IL-2", "setting": "[1]; P=0.0851", "result": "relatively lower"}, {"measurement": "levels of TNF-α", "setting": "[1]; P=0.1817", "result": "relatively lower"}, {"measurement": "mortality reduction", "setting": "[1]; mice, sepsis", "result": "80-90%"}, {"measurement": "renal and hepatic biomarker profiles", "setting": "[1]; mice, sepsis", "result": "improved"}, {"measurement": "lipopolysaccharide-induced inflammatory reactions", "setting": "nitric oxide", "result": "suppressed effectively"}, {"measurement": "concentration of nitric oxide", "setting": "nitric oxide; lipopolysaccharide-induced", "result": "reduced significantly"}]}, {"compound": "epigallocatechin-3-gallate [EGCG]", "values": [{"measurement": "disappearance of inhibitor kappaB from cytosolic fraction", "setting": "[2]", "result": "blocked"}, {"measurement": "NO production", "setting": "[2]; cells cotreated with EGCG and LPS", "result": "Inhibition"}, {"measurement": "activation of nuclear factor-kappaB", "setting": "[2]; electrophoretic mobility shift assay", "result": "blocked"}, {"measurement": "hypotension (mean arterial blood pressure)", "setting": "[3]", "result": "significantly improved"}, {"measurement": "colonic tissue erosion", "setting": "[4]; [12]", "result": "attenuation"}, {"measurement": "disease activity index (DAI)", "setting": "[4]; [12]", "result": "decreased"}, {"measurement": "spleen index (SI)", "setting": "[4]; [12]", "result": "decreased"}, {"measurement": "HIF-1α and STATS protein expression in the colon", "setting": "[4]; mouse, in vivo", "result": "decreasing"}, {"measurement": "plasma levels of IL-10 and TGF-β1", "setting": "[4]; mouse, in vivo", "result": "increasing"}, {"measurement": "release of IL-6 and IL-17", "setting": "[4]; plasma", "result": "reduce"}, {"measurement": "TNF-α-induced nuclear factor-κB (NF-κB) activity", "setting": "macrophage foam cells", "result": "inhibition"}, {"measurement": "TNF-α-induced downregulation of ABCA1 and decrease in cholesterol efflux to apoA1", "setting": "macrophage foam cells; pretreatment", "result": "attenuated"}, {"measurement": "rescue from lethal sepsis", "setting": "[5]; first dose 24 hours after cecal ligation and puncture", "result": "rescued"}, {"measurement": "protection against lethal endotoxemia", "setting": "[5]; intraperitoneal administration", "result": "protected"}, {"measurement": "systemic accumulation of HMGB1, IL-6 and KC", "setting": "[5]; mouse, in vivo", "result": "attenuation"}, {"measurement": "myeloperoxidase activity", "setting": "[6]", "result": "reduced"}, {"measurement": "myocardial damage", "setting": "[6]", "result": "reduced"}, {"measurement": "plasma IL-6 levels", "setting": "[6]", "result": "decreased"}, {"measurement": "plasma creatine phosphokinase levels", "setting": "[6]", "result": "decreased"}, {"measurement": "survival", "setting": "[7]", "result": "significantly improved"}, {"measurement": "changes in blood gases", "setting": "[8]; 10 mg/kg ip", "result": "decreased"}, {"measurement": "expression of IκB-α", "setting": "[8]; 10 mg/kg ip", "result": "increased"}, {"measurement": "expression of TLR-4, MyD88, TRIF and p-p65 in the lung tissue", "setting": "[8]; 10 mg/kg ip", "result": "alleviated"}, {"measurement": "expression of TNF-α, IL-1β and IL-6 in the lung, serum and bronchoalveolar lavage fluid", "setting": "[8]; 10 mg/kg ip", "result": "significantly decreased"}, {"measurement": "expression of p65", "setting": "[8]; 10 mg/kg ip", "result": "no influence"}, {"measurement": "histological lesions", "setting": "[8]; 10 mg/kg ip", "result": "reduced"}, {"measurement": "myeloperoxidase (MPO) activity", "setting": "[8]; 10 mg/kg ip", "result": "reduced"}, {"measurement": "wet-to-dry weight ratios", "setting": "[8]; 10 mg/kg ip", "result": "reduced"}, {"measurement": "LPS-induced ARDS", "setting": "[8]; 10 mg/kg ip 1 h before LPS 10 mg/kg ip", "result": "attenuated"}]}, {"compound": "C[S+]([O-])CCCCN=C=S", "note": "(centres unmarked) [sulforaphane, 1-isothiocyanato-4-(methylsulfinyl)-butane]", "values": [{"measurement": "direct reaction with cytokines or NO", "setting": "[9]", "result": "neither directly reacted"}, {"measurement": "expression of NO and cytokines", "setting": "[9]", "result": "able to prevent"}, {"measurement": "HO-1 expression", "setting": "[10]; LPS-stimulated Nrf2 (+/+) primary peritoneal macrophages", "result": "significantly augmented"}, {"measurement": "LPS-stimulated mRNA expression, protein expression and production of TNF-alpha, IL-1beta, COX-2 and iNOS", "setting": "[10]; Nrf2 (+/+) primary peritoneal macrophages, pretreatment", "result": "potently inhibited"}, {"measurement": "anti-inflammatory effect", "setting": "[10]; Nrf2 (−/−) primary peritoneal macrophages", "result": "attenuated"}, {"measurement": "inducible nitric oxide synthase (iNOS) activity", "setting": "[11]; 50 mg/kg", "result": "significantly inhibited"}, {"measurement": "nuclear factor-κB protein expression", "setting": "[11]; 50 mg/kg", "result": "significantly decreased"}, {"measurement": "prostaglandin E2 (PGE2) production", "setting": "[11]; 50 mg/kg", "result": "significantly inhibited"}, {"measurement": "serum levels of interleukin-6 (IL-6)", "setting": "[11]; 50 mg/kg, ELISA", "result": "significantly decreased"}, {"measurement": "serum levels of tumor necrosis factor-α (TNF-α)", "setting": "[11]; 50 mg/kg, ELISA", "result": "significantly decreased"}, {"measurement": "lactate dehydrogenase (LDH) activity", "setting": "[11]; [13]", "result": "significantly decreased"}, {"measurement": "wet-to-dry ratio of the lungs", "setting": "[11]; [13]", "result": "significantly decreased"}, {"measurement": "cyclooxygenase-2 (COX-2) protein expression", "setting": "[11]; 50 mg/kg, western blot", "result": "significantly inhibited"}, {"measurement": "matrix metalloproteinase-9 (MMP-9) protein expression", "setting": "[11]; 50 mg/kg, western blot", "result": "significantly inhibited"}, {"measurement": "Nrf2/antioxidant response element (ARE) pathway", "setting": "[11]; pre-treatment", "result": "activated"}]}]}
